Measured values: publication PMC13128454, “Mutant p53 protein accumulation is selectively targetable by proximity-inducing drugs” (Nature Chemical Biology, 2025)
Several values for one entry are separate records, joined by “and”; a condition that tells them apart may be missing. Identical values can stand only once. Like-named read-outs stand apart in the source and are kept apart here.

Tests used:
Type in all cases: cell-based
BxPC-3 cells = experiment: CellTiter-Glo cell viability; conditions: BXPC3; for mean_norm (normalized viability): 4 day
Procedure, shortened: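 ~1,500 cells/well + compound titration. CTG added, mixed, plate read.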

[1] = target: T1, p53-Y220C–PLK1 ternary complex (Homo sapiens, UniProt P04637+P53350, M133L/N239Y/N268D/V203A/Y220C); experiment: NanoBiT ternary complex assay in cotransfected 293T cells; conditions: for NLuc Signal, Average: 0 nM: 323
T1 construct: NLS–LgBiT–p53-Y220C (DBD) and mEGFP–PLK1–SmBiT; expressed in transfected cells; host or cells: 293T cells, transient cotransfection
Source text: After 1 day, the cells were passaged into 384-well plates and treated with varying concentrations of compound.

[2] = test system: p53 transcriptional targets in Huh7 cells (TP53^Y220C/Y220C); experiment: Huh7 RNA-seq and GSEA; conditions: 4 μM, 24 h, versus DMSO
Procedure: Huh7 cells were passaged into six-well plates and treated with PMV6 (4 μM), p53-01 (4 μM) or DMSO for 24 h. Cells were washed once with cold PBS. Subsequently, TRIzol (Invitrogen) was added to cells and, following the manufacturer’s protocol, RNA was extracted. RNA concentration was monitored using a Qubit fluorometer (Thermo Fisher) and RNA integrity was analyzed using an Agilent Bioanalyzer. The NEBNext Ultra II RNA library prep kit (Illumina) was used to prepare an RNA-seq library. A NovaSeq 6000 machine (Illumina) was used for paired-end 150-bp RNA-seq. STAR/RSEM[68],[71] was used to align RNA-seq reads to the GENCODE v38 transcript ref.[72] and generate a count matrix. Raw counts were rounded and DESeq2 was used for downstream analysis. A preranked GSEA[74] was performed using the DESeq2 t statistic (versus DMSO-treated cells) as a rank metric using the Fischer p53 targets geneset.

[3] = Concentration 2.44141 nM, 1 day
[4] = Concentration 4.88281 nM, 1 day
[5] = Concentration 9.76562 nM, 1 day
[6] = Concentration 19.5312 nM, 1 day
[7] = Concentration 39.0625 nM, 1 day

Structure (SMILES): CC[C@@H]1C(=O)N(C)c2cnc(Nc3ccc(C(=O)NCCOCCOCCOCCOCCC(=O)N4CCC(Nc5cccc6c5cc(C#CCNc5ccc(S(C)(=O)=O)cc5OC)n6CC(F)(F)F)CC4)cc3OC)nc2N1C1CCCC1 [p53-01, PMV6-PEG4-BI2536]
- p5301_AUC_to_10uM (BxPC-3 cells): 0.6983
- mean_norm (normalized viability) (BxPC-3 cells; Concentration 625): 0.9363
- mean_norm (normalized viability) (BxPC-3 cells; Concentration 1250): 0.9354
- mean_norm (normalized viability) (BxPC-3 cells; Concentration 2500): 0.8133
- mean_norm (normalized viability) (BxPC-3 cells; Concentration 5000): 0.7027
- IC50 (BxPC-3 cells; Homo sapiens, BXPC-3, 96 h, 4 day treatment): 8.25 µM
- EC50 ([1]; 24 h, n = 4, read-out: NanoBiT EC50): 2.12 µM
- EC50 ([1]; 1 day, n = 6, Fig. 3b, read-out: EC50 NanoBiT ternary complex formation): 1.4 µM
- NLuc Signal (replicate) ([1]; Concentration 1.2207 nM, 1 day): 300 and 316 and 296 and 324 and 308
- NLuc Signal, Average ([1]; Concentration 1.2207 nM, 1 day): 310
- NLuc Signal (replicate) [1, 3]: 356 and 348 and 308 and 360 and 340 and 324
- NLuc Signal, Average [1, 3]: 339.333
- NLuc Signal (replicate) [1, 4]: 316 and 344 and 284 and 312 and 332
- NLuc Signal, Average [1, 4]: 317.333
- NLuc Signal (replicate) [1, 5]: 328 and 336 and 296 and 308 and 312 and 360
- NLuc Signal, Average [1, 5]: 323.333
- NLuc Signal (replicate) [1, 6]: 352 and 360 and 304 and 296 and 324 and 300
- NLuc Signal, Average [1, 6]: 322.667
- NLuc Signal (replicate) [1, 7]: 404 and 356 and 324 and 368 and 332 and 364
- NLuc Signal, Average [1, 7]: 358
- NLuc Signal (replicate) ([1]; Concentration 78.125 nM, 1 day): 312 and 292 and 400 and 392 and 356
- NLuc Signal, Average ([1]; Concentration 78.125 nM, 1 day): 351.333
- NLuc Signal (replicate) ([1]; Concentration 156.25 nM, 1 day): 380 and 352 and 372 and 324 and 360 and 332
- NLuc Signal, Average ([1]; Concentration 156.25 nM, 1 day): 353.333
- NLuc Signal (replicate) ([1]; Concentration 312.5 nM, 1 day): 428 and 364 and 392 and 404 and 488
- NLuc Signal, Average ([1]; Concentration 312.5 nM, 1 day): 413.333
- NLuc Signal (replicate) ([1]; Concentration 625 nM, 1 day): 484 and 444 and 472 and 448 and 420 and 408
- NLuc Signal, Average ([1]; Concentration 625 nM, 1 day): 446
- NLuc Signal (replicate) ([1]; Concentration 1250 nM, 1 day): 704 and 792 and 644 and 588
- NLuc Signal, Average ([1]; Concentration 1250 nM, 1 day): 660
- NLuc Signal (replicate) ([1]; Concentration 2500 nM, 1 day): 988 and 1108 and 1092 and 1436 and 1288
- NLuc Signal, Average ([1]; Concentration 2500 nM, 1 day): 1167.33
- NLuc Signal (replicate) ([1]; Concentration 5000 nM, 1 day): 1240 and 1080 and 1140 and 1304 and 1104 and 1468
- NLuc Signal, Average ([1]; Concentration 5000 nM, 1 day): 1222.67
- NLuc Signal (replicate) ([1]; Concentration 10000 nM, 1 day): 1052 and 1356 and 1056 and 1192 and 1180 and 1372
- NLuc Signal, Average ([1]; Concentration 10000 nM, 1 day): 1201.33
- NanoBiT mean_norm ([1]; Concentration 19.5312): 1.047
- NanoBiT mean_norm ([1]; Concentration 39.0625): 1.0545
- NanoBiT mean_norm ([1]; Concentration 78.125): 1.0649
- NanoBiT mean_norm ([1]; Concentration 156.25): 1.0584
- NanoBiT mean_norm ([1]; Concentration 312.5): 1.026
- NanoBiT mean_norm ([1]; Concentration 625): 1.182
- NanoBiT mean_norm ([1]; Concentration 1250): 1.238
- NanoBiT mean_norm ([1]; Concentration 2500): 1.362
- NanoBiT mean_norm ([1]; Concentration 5000): 1.592
- NanoBiT mean_norm ([1]; Concentration 10000): 1.5997
- ternary complex formation between p53-Y220C and PLK1 ([1]; NanoBiT, 1 day): induce ternary complex formation
- Max_effect ([1]; sheet 5C): 1.5997
- EC50 ([1]; sheet 5C, read-out: EC50): 2.12 µM
- normalized enrichment score (NES), Fischer p53 targets [2]: 1.33
